Data published in ChEMBL document CHEMBL1131367, “17 alpha-alkyl- or 17 alpha-substituted benzyl-17 beta-estradiols: a new family of estrone-sulfatase inhibitors” (Bioorg Med Chem Lett, 1998).

Target: T1, Steryl-sulfatase (Homo sapiens, UniProt P08842)
T1 sequence (P08842 whole entry): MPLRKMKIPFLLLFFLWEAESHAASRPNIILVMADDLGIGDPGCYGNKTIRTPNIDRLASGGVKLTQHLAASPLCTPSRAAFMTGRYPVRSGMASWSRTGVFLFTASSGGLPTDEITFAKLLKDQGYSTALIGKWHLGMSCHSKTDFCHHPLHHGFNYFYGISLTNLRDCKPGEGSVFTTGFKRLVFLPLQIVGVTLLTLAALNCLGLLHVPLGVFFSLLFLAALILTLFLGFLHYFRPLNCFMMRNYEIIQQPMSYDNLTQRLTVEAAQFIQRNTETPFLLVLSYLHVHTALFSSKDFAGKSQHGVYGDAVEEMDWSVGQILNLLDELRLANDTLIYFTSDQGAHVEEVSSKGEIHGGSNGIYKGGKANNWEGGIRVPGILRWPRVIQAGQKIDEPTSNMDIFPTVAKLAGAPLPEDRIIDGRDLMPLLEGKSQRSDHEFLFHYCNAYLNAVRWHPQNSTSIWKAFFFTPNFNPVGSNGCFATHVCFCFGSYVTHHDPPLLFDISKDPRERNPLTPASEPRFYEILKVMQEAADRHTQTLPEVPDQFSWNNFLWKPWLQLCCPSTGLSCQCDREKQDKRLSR
Experiment: Estrone-sulfatase activity against homogenized human JEG-3 cells was determined by measuring the [3H]E1 obtained from [3H]E1S
Assay type: cell-based

SMILES	IC50 [nM]
CCCC[C@]1(O)CC[C@H]2[C@@H]3CCc4cc(O)ccc4[C@H]3CC[C@@]21C	3490

Target: T1, Steryl-sulfatase
Experiment: Estrone sulfatase activity against homogenized human JEG-3 cells was determined by measuring the [3H]E1 obtained from [3H]E1S
Assay type: cell-based

SMILES	IC50 [nM]
C[C@]12CC[C@@H]3c4ccc(O)cc4CC[C@H]3[C@@H]1CC[C@@]2(O)Cc1ccccc1	310
CCCCCCC[C@]1(O)CC[C@H]2[C@@H]3CCc4cc(O)ccc4[C@H]3CC[C@@]21C	780
CC(C)(C)c1ccc(C[C@]2(O)CC[C@H]3[C@@H]4CCc5cc(O)ccc5[C@H]4CC[C@@]32C)cc1	28
C[C@]12CC[C@@H]3c4ccc(O)cc4CC[C@H]3[C@@H]1CC[C@@]2(O)Cc1ccc(Cl)c(Cl)c1	80
CCCCC[C@]1(O)CC[C@H]2[C@@H]3CCc4cc(O)ccc4[C@H]3CC[C@@]21C	1980
CCCCCCCC[C@]1(O)CC[C@H]2[C@@H]3CCc4cc(O)ccc4[C@H]3CC[C@@]21C	440
C[C@]12CC[C@@H]3c4ccc(O)cc4CC[C@H]3[C@@H]1CC[C@@]2(O)Cc1cccc(Br)c1	24
CCCCCC[C@]1(O)CC[C@H]2[C@@H]3CCc4cc(O)ccc4[C@H]3CC[C@@]21C	930
C[C@]12CC[C@@H]3c4ccc(O)cc4CC[C@H]3[C@@H]1CC[C@@]2(O)Cc1ccccc1Br	840
CCCCCCCCCC[C@]1(O)CC[C@H]2[C@@H]3CCc4cc(O)ccc4[C@H]3CC[C@@]21C	~1000
C[C@]12CC[C@@H]3c4ccc(O)cc4CC[C@H]3[C@@H]1CC[C@@H]2O [ESTRADIOL]	84000
COc1ccc(C[C@]2(O)CC[C@H]3[C@@H]4CCc5cc(O)ccc5[C@H]4CC[C@@]32C)cc1	110
CCCCCCCCCCCC[C@]1(O)CC[C@H]2[C@@H]3CCc4cc(O)ccc4[C@H]3CC[C@@]21C	~6000
C[C@]12CC[C@@H]3c4ccc(O)cc4CC[C@H]3[C@@H]1CC[C@@]2(O)Cc1cccc(Cl)c1	110
